Laboratory results as given in publication PMC9496151, “Expression and Function of ABC Transporters in Human Alveolar Epithelial Cells” (Biomolecules, 2022).

Tests used:
ABCG2/BCRP [1] = test: Bidirectional transport of Bodipy FL Prazosin (BCRP activity) in EpiAlveolar; assay type: in vitro ADME, human
Experimental: (§1) The activity of ABC transporters was determined by measuring the apical-to-basolateral (AB) and basolateral-to-apical (BA) fluxes of specific substrates. To this aim, cell monolayers were washed twice in HBSS and equilibrated for 30 min in the same solution (pH 7.4, 37 °C). […] After 0, 30, 60, and 120 min, aliquots of the solution were collected from the opposite chamber (receiver chamber) and replaced with the same volume of HBSS. The fluxes were determined by reading fluorescence with an EnSpire® Multimode Plate Reader (Perkin Elmer), or radioactivity with MicroBeta^2 liquid scintillation spectrometer. The apparent permeability coefficient (Papp) was calculated from the data obtained.
(§2) Efflux ratio (ER) was calculated as the ratio between Papp measured for BA and AB fluxes, while uptake ratio (UR) was the ratio between Papp measured for AB and BA fluxes.

ABCG2/BCRP [2] = test: Bidirectional transport of Bodipy FL Prazosin (BCRP activity) in hAELVi; assay type: in vitro ADME, human
Experimental: as §1, §2

MDR1 [3] = test: Bidirectional transport of Rhodamine123 (MDR1 activity) in EpiAlveolar; assay type: in vitro ADME, human
Experimental: as §1, §2

MDR1 [4] = test: Bidirectional transport of Rhodamine123 (MDR1 activity) in hAELVi; assay type: in vitro ADME, human
Experimental: as §1, §2

[5] = 10 µM PSC833, 1 µM Rhodamine123, AB and BA

Experimental for EpiAlveolar™: The paracellular and transcellular permeability of cell monolayers to solutes was assessed by monitoring the apical-to-basolateral fluxes of ^14C-mannitol and ^3H-propranolol, respectively. In detail, cell monolayers were washed and incubated for 30 min in Hank’s Balanced Salt Solution (HBSS, pH 7.4, 37 °C); HBSS containing ^14C-mannitol (1 µCi/mL, corresponding to 20 µM) or ^3H-propranolol (3 µCi/mL; 10 µM) was then added to the apical side. Aliquots of medium were collected from the basolateral compartment after 0, 30, 60, and 120 min and replaced with fresh HBSS; radioactivity in each sample was measured with a MicroBeta^2 liquid scintillation spectrometer (Perkin Elmer, Italy) and employed to calculate the apparent permeability coefficient (Papp).
The apparent permeability coefficient (Papp) of the tracer molecules was calculated according to the equation:Papp = (dQ⁄dt)⁄(A×C0×60) where dQ/dt is the transport rate of the tracer, A is the filter surface area, C0 is the initial concentration of the tracer in the donor chamber, and 60 is the conversion from minutes to seconds.

SMILES: COc1ccc2c3c([nH]c2c1)[C@H](CC(C)C)N1C(=O)[C@H](CCC(=O)OC(C)(C)C)NC(=O)[C@@H]1C3 [Ko143]
- inhibition of Bodipy™ FL Prazosin fluxes (ABCG2/BCRP [1]; 20 µM Ko143): no inhibition
- inhibition of Bodipy™ FL Prazosin fluxes (ABCG2/BCRP [2]; 20 µM Ko143): no inhibition

SMILES: C/C=C/C[C@@H](C)C(=O)[C@H]1C(=O)N[C@@H](C(C)C)C(=O)N(C)CC(=O)N(C)[C@@H](CC(C)C)C(=O)N[C@@H](C(C)C)C(=O)N(C)[C@@H](CC(C)C)C(=O)N[C@@H](C)C(=O)N[C@H](C)C(=O)N(C)[C@@H](CC(C)C)C(=O)N(C)[C@@H](CC(C)C)C(=O)N(C)[C@@H](C(C)C)C(=O)N1C [PSC833]
- effect of inhibitor on Papp of Rhodamine123 (MDR1 [3]; [5]): not modified
- effect of inhibitor on Papp of Rhodamine123 (MDR1 [4]; [5]): not modified

SMILES: COC(=O)c1ccccc1-c1c2ccc(=N)cc-2oc2cc(N)ccc12 [Rhodamine123]
- Papp, AB versus BA fluxes (MDR1 [3]; 1 µM Rhodamine123): comparable for AB and BA fluxes
- efflux ratio (ER) versus uptake ratio (UR) (MDR1 [3]; 1 µM Rhodamine123): comparable values
- Papp, AB versus BA fluxes (MDR1 [4]; 1 µM Rhodamine123): comparable for AB and BA fluxes
- efflux ratio (ER) versus uptake ratio (UR) (MDR1 [4]; 1 µM Rhodamine123): comparable values

SMILES: Cc1nc(-c2ccc(OCC(C)C)c(C#N)c2)sc1C(=O)O [febuxostat]
- inhibition of Bodipy™ FL Prazosin fluxes (ABCG2/BCRP [1]; 50 µM Febuxostat): no inhibition
- inhibition of Bodipy™ FL Prazosin fluxes (ABCG2/BCRP [2]; 50 µM Febuxostat): no inhibition

SMILES: OC[C@@H](O)[C@@H](O)[C@H](O)[C@H](O)CO [mannitol]
- paracellular permeability (Papp), apical-to-basolateral flux (hAELVi): slight not significant difference
- paracellular permeability (Papp), apical-to-basolateral flux (EpiAlveolar™): more permeable

SMILES: CC(C)NCC(O)COc1cccc2ccccc12 (centres unmarked) [propranolol]
- transcellular permeability (Papp), apical-to-basolateral flux (hAELVi): comparable permeability
- transcellular permeability (Papp), apical-to-basolateral flux (EpiAlveolar™): comparable permeability
